Reference: patent US10131652B2, “Pyrimidinyloxy benzene derivatives as herbicides” (E. I. DU PONT DE NEMOURS AND COMPANY, priority 2014, dated 2018)

Columns and labels:
Type in all cases: in vivo
[1] = system: ducksalad (Heteranthera limosa); assay: Test C flooded paddy test plant response; settings: Flood, 250 g ai/ha; scale of 0 to 100 where 0 is no effect and 100 is complete control; 13 to 15 days
In short: (§1)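 Plants grown to the 2-leaf stage; pots flooded to 3 cm above soil, test compounds applied directly to paddy water, depth maintained throughout. Greenhouse for 13 to 15 days, then visual rating versus controls on a 0–100 scale (0 no effect, 100 complete control).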

[2] = system: small-flower umbrella sedge (Cyperus difformis); assay: Test C flooded paddy test plant response; settings: Flood, 250 g ai/ha; scale of 0 to 100 where 0 is no effect and 100 is complete control; 13 to 15 days
In short: as §1

[3] = system: barnyardgrass (Echinochloa crus-galli); assay: Test C flooded paddy test plant response; settings: Flood, 250 g ai/ha; scale of 0 to 100 where 0 is no effect and 100 is complete control; 13 to 15 days
In short: as §1

rice (Oryza sativa) = assay: Test C flooded paddy test plant response; settings: Flood, 250 g ai/ha; scale of 0 to 100 where 0 is no effect and 100 is complete control; 13 to 15 days
In short: as §1

[4] = system: pigweed (Amaranthus retroflexus); assay: Test B pre-/postemergence plant response
In short: (§2)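 Evaluation is visual, about 10 days after application, rating injury from 0 (none) to 100 (complete control) relative to untreated controls. Application was a preemergence soil spray on seeded pots or a postemergence spray on one- to two-leaf plants.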

corn (Zea mays) = assay: Test B pre-/postemergence plant response; settings: 0 to 100 scale, 0 no effect, 100 complete control
In short: as §2

[5] = system: barnyardgrass (Echinochloa crus-galli); assay: Test B pre-/postemergence plant response
In short: as §2

[6] = system: giant foxtail (Setaria faberii); assay: Test B pre-/postemergence plant response
In short: as §2

[7] = system: wheat (Triticum aestivum); assay: Test B pre-/postemergence plant response; settings: 125 g ai/ha, postemergence; 0 to 100 scale, 0 no effect, 100 complete control
In short: as §2

[8] = system: lambsquarters (Chenopodium album); assay: Test D pre-/postemergence plant response
In short: (§3)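 0 = no effect, 100 = complete control: plants were scored this way by visual comparison with controls 13 to 15 days post-treatment. Application was preemergence to sown loam/sand pots or postemergence to 2–18 cm seedlings in peat-based mix.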

soybean (Glycine max) = assay: Test D pre-/postemergence plant response
In short: as §3

[9] = system: velvetleaf (Abutilon theophrasti); assay: Test D pre-/postemergence plant response
In short: as §3

[10] = system: waterhemp (common waterhemp, Amaranthus rudis); assay: Test D pre-/postemergence plant response
In short: as §3

[11] = system: johnsongrass (Sorghum halepense); assay: Test D pre-/postemergence plant response
In short: as §3

[12] = system: morningglory (Ipomoea coccinea); assay: Test D pre-/postemergence plant response
In short: as §3

[13] = system: winter wheat (Triticum aestivum); assay: Test D pre-/postemergence plant response
In short: as §3

[14] = 31 g ai/ha, Preemergence, 0 to 100 scale where 0 is no effect and 100 is complete control
[15] = 125 g ai/ha, postemergence, 0 to 100 scale, 0 no effect, 100 complete control
[16] = Preemergence, 125 g ai/ha, 0 to 100 scale (0 no effect, 100 complete control)
[17] = 31 g ai/ha, Postemergence, 0 to 100 scale, 0 no effect, 100 complete control
[18] = Postemergence, 31 g ai/ha, scale 0 to 100 (0 no effect, 100 complete control)
[19] = Postemergence, 62 g ai/ha, scale 0 to 100, 0 no effect, 100 complete control
[20] = Postemergence, 125 g ai/ha, scale 0 to 100, 0 no effect, 100 complete control
[21] = Preemergence, 16 g ai/ha, scale 0 to 100 (0 no effect, 100 complete control)
[22] = Preemergence, 31 g ai/ha, scale 0 to 100 (0 no effect, 100 complete control)
[23] = Preemergence, 62 g ai/ha, scale 0 to 100 (0 no effect, 100 complete control)

FC(F)Oc1cccc(Oc2ncc(Cl)cn2)c1-c1cc(C(F)F)on1 [Compound 131]
Ducksalad plant response rating [1]: 95
Sedge, Umbrella plant response rating [2]: 95
Barnyardgrass plant response rating [3]: 75
Rice plant response rating (rice (Oryza sativa)): 60
Plant response rating, Pigweed [4, 14]: 100
Plant response rating, Pigweed [4, 15]: 100
Pigweed plant response rating [4, 16]: 100
Plant response rating, Corn (corn (Zea mays); 31 g ai/ha, Postemergence): 20
Plant response rating, Corn (corn (Zea mays); 125 g ai/ha, postemergence): 40
Plant response rating, Barnyardgrass [5, 17]: 50
Plant response rating, Barnyardgrass [5, 14]: 80
Plant response rating, Barnyardgrass [5, 15]: 90
Barnyardgrass plant response rating [5, 16]: 100
Plant response rating, Foxtail, Giant [6, 17]: 50
Plant response rating, Foxtail, Giant [6, 14]: 100
Plant response rating, Foxtail, Giant [6, 15]: 90
Foxtail, Giant plant response rating [6, 16]: 100
Plant response rating, Wheat [7]: 30
Lambsquarters plant response rating [8, 18]: 98
Plant response rating, Lambsquarters [8, 19]: 98
Plant response rating, Lambsquarters [8, 20]: 100
Plant response rating (scale 0 to 100), Lambsquarters ([8]; Preemergence, 125 g ai/ha): 98
Plant response rating, Lambsquarters [8, 21]: 75
Plant response rating, Lambsquarters [8, 22]: 80
Plant response rating, Lambsquarters [8, 23]: 85
Soybean plant response rating (soybean (Glycine max); [18]): 15
Plant response rating, Soybean (soybean (Glycine max); [19]): 75
Plant response rating, Soybean (soybean (Glycine max); [20]): 65
Plant response rating (scale 0 to 100), Soybean (soybean (Glycine max); Preemergence, 125 g ai/ha): 85
Plant response rating, Soybean (soybean (Glycine max); [21]): 5
Plant response rating, Soybean (soybean (Glycine max); [22]): 10
Plant response rating, Soybean (soybean (Glycine max); [23]): 50
Velvetleaf plant response rating [9, 18]: 65
Plant response rating, Velvetleaf [9, 19]: 80
Plant response rating, Velvetleaf [9, 20]: 85
Plant response rating (scale 0 to 100), Velvetleaf ([9]; Preemergence, 125 g ai/ha): 98
Plant response rating, Velvetleaf [9, 21]: 20
Plant response rating, Velvetleaf [9, 22]: 65
Plant response rating, Velvetleaf [9, 23]: 80
Waterhemp plant response rating [10, 18]: 90
Plant response rating, Waterhemp [10, 19]: 90
Plant response rating, Waterhemp [10, 20]: 98
Plant response rating (scale 0 to 100), Waterhemp ([10]; Preemergence, 125 g ai/ha): 100
Plant response rating, Waterhemp [10, 21]: 100
Plant response rating, Waterhemp [10, 22]: 100
Plant response rating, Waterhemp [10, 23]: 100
Johnsongrass plant response rating [11, 18]: 5
Plant response rating, Johnsongrass [11, 19]: 25
Plant response rating, Johnsongrass [11, 20]: 45
Plant response rating (scale 0 to 100), Johnsongrass ([11]; Preemergence, 125 g ai/ha): 85
Plant response rating, Johnsongrass [11, 21]: 0
Plant response rating, Johnsongrass [11, 22]: 30
Plant response rating, Johnsongrass [11, 23]: 80
Morningglory plant response rating [12, 18]: 75
Plant response rating, Morningglory [12, 19]: 75
Plant response rating, Morningglory [12, 20]: 95
Plant response rating (scale 0 to 100), Morningglory ([12]; Preemergence, 125 g ai/ha): 85
Plant response rating, Morningglory [12, 21]: 0
Plant response rating, Morningglory [12, 22]: 40
Plant response rating, Morningglory [12, 23]: 35
Wheat plant response rating [13, 18]: 0
Plant response rating, Wheat [13, 19]: 0
Plant response rating, Wheat [13, 20]: 0
Plant response rating (scale 0 to 100), Wheat ([13]; Preemergence, 125 g ai/ha): 5
Plant response rating, Wheat [13, 21]: 0
Plant response rating, Wheat [13, 22]: 0
Plant response rating, Wheat [13, 23]: 0
